The test system of the data set is rodent lifetime carcinogenesis bioassay, tumor incidence TD50. The data set is described as follows: carcinogenic potency in animals, long-term in vivo studies, CPDB compilation (AID 1745844).

The record followed here is PubChem BioAssay AID1745844 (Carcinogenic Potency Database (CPDB), 2022).

Molecules are shown by their SMILES. Active and inactive are the calls of the source. How the calls were made is not given here.

Usually TD50 stands for the 50% point of the dose-response relation for the toxic effect studied. Take `Nc1ccc(NCCO)c([N+](=O)[O-])c1`: the TD50 is, setting by setting: (mouse, strain B6C3F1, females, by gavage, site: any site (literature study), lesion: several types, types named in the paper, dosed 104 weeks, study length 105 weeks) 292 mg/kg/day; (mouse, strain B6C3F1, females, by gavage, site: forestomach, lesion: squamous-cell papilloma, dosed 104 weeks, study length 105 weeks) 721 mg/kg/day; (mouse, strain B6C3F1, females, by gavage, site: lung, lesion: alveolar/bronchiolar adenoma + alveolar/bronchiolar carcinoma, dosed 104 weeks, study length 105 weeks) 4670 mg/kg/day; (mouse, strain B6C3F1, males, by gavage, site: liver, lesion: hepatocellular adenoma + hepatocellular carcinoma + neoplastic nodule, dosed 104 weeks, study length 105 weeks) 427 mg/kg/day; (mouse, strain B6C3F1, males, by gavage, site: liver, lesion: hepatocellular adenoma + hepatocellular carcinoma, dosed 104 weeks, study length 105 weeks) 427 mg/kg/day; (mouse, strain B6C3F1, males, by gavage, site: lung, lesion: alveolar/bronchiolar adenoma + alveolar/bronchiolar carcinoma, dosed 104 weeks, study length 105 weeks) 1750 mg/kg/day. Further, the TD50 runs as follows: (rat, strain Fischer 344, females, by gavage, site: any site (literature study), lesion: several types, types named in the paper, dosed 105 weeks, study length 106 weeks) 4870 mg/kg/day (inactive); (rat, strain Fischer 344, males, by gavage, site: any site (literature study), lesion: several types, types named in the paper, dosed 105 weeks, study length 106 weeks) 500 mg/kg/day (inactive); (rat, strain Fischer 344, males, by gavage, site: liver, lesion: hepatocellular adenoma + hepatocellular carcinoma + neoplastic nodule, dosed 105 weeks, study length 106 weeks) 1.51e+06 mg/kg/day.

With `CC(C)=NNc1nc(-c2ccc([N+](=O)[O-])o2)cs1`, the TD50 is, setting by setting: (rat, strain Holtzman albino (Sprague-Dawley derived), females, in feed, site: forestomach, lesion: squamous-cell papilloma, dosed 36 weeks, study length 54 weeks) 11 mg/kg/day; (rat, strain Holtzman albino (Sprague-Dawley derived), females, in feed, site: forestomach, lesion: squamous-cell papilloma, dosed 44 weeks, study length 60 weeks) 6.05 mg/kg/day.

`C[C@H]1CCCC(=O)CCC/C=C/c2cc(O)cc(O)c2C(=O)O1`: the TD50 (mouse, strain B6C3F1, females, in feed, site: any site (literature study), lesion: several types, types named in the paper, dosed 104 weeks, study length 105 weeks) amounted to 17.9 mg/kg/day; the TD50 (mouse, strain B6C3F1, females, in feed, site: liver + pituitary gland, lesion: hepatocellular adenoma + hepatocellular carcinoma + adenoma, NOS + carcinoma, dosed 104 weeks, study length 105 weeks) worked out at 22 mg/kg/day; the TD50 (mouse, strain B6C3F1, females, in feed, site: liver, lesion: hepatocellular adenoma + hepatocellular carcinoma + neoplastic nodule, dosed 104 weeks, study length 105 weeks) was 38.8 mg/kg/day; the TD50 (mouse, strain B6C3F1, females, in feed, site: liver, lesion: hepatocellular adenoma + hepatocellular carcinoma, dosed 104 weeks, study length 105 weeks) is 38.8 mg/kg/day; the TD50 (mouse, strain B6C3F1, females, in feed, site: liver, lesion: hepatocellular adenoma, dosed 104 weeks, study length 105 weeks) is 50.1 mg/kg/day; the TD50 (mouse, strain B6C3F1, females, in feed, site: pituitary gland, lesion: adenoma, NOS + carcinoma, dosed 104 weeks, study length 105 weeks) is 32.3 mg/kg/day. Further, the TD50 by setting is: (mouse, strain B6C3F1, females, in feed, site: pituitary gland, lesion: adenoma, NOS, dosed 104 weeks, study length 105 weeks) 37.4 mg/kg/day; (mouse, strain B6C3F1, males, in feed, site: pituitary gland, lesion: adenoma + carcinoma, dosed 104 weeks, study length 105 weeks) 49.1 mg/kg/day; (mouse, strain B6C3F1, males, in feed, site: pituitary gland, lesion: adenoma, dosed 104 weeks, study length 105 weeks) 53.3 mg/kg/day; (rat, strain Fischer 344, females, in feed, site: any site (literature study), lesion: several types, types named in the paper, dosed 104 weeks, study length 104 weeks) 80.9 mg/kg/day (inactive); (rat, strain Fischer 344, females, in feed, site: liver, lesion: hepatocellular adenoma + hepatocellular carcinoma + neoplastic nodule, dosed 104 weeks, study length 104 weeks) 33.5 mg/kg/day; (rat, strain Fischer 344, males, in feed, site: any site (literature study), lesion: several types, types named in the paper, dosed 104 weeks, study length 104 weeks) 16.2 mg/kg/day (inactive). The TD50 (rat, strain Fischer 344, males, in feed, site: liver, lesion: hepatocellular adenoma + hepatocellular carcinoma + neoplastic nodule, dosed 104 weeks, study length 104 weeks) came to 950 mg/kg/day.

For the molecule `O=NN1CCCC1c1ccc[n+]([O-])c1` (centres undefined), the TD50 reads like this: (hamster, strain Syrian Golden, females, in drinking water, site: liver, lesion: angiosarcoma, dosed 31 weeks, study length 96 weeks) 39 mg/kg/day (inactive); (rat, strain Fischer 344, females, in drinking water, site: esophagus, lesion: several types, types named in the paper, dosed 36 weeks, study length 104 weeks) 5.65 mg/kg/day; (rat, strain Fischer 344, females, in drinking water, site: nasal cavity, lesion: several types, types named in the paper, dosed 36 weeks, study length 104 weeks) 1.86 mg/kg/day; (rat, strain Fischer 344, males, in drinking water, site: esophagus, lesion: papilloma, dosed 36 weeks, study length 104 weeks) 2.64 mg/kg/day; (rat, strain Fischer 344, males, in drinking water, site: esophagus, lesion: several types, types named in the paper, dosed 36 weeks, study length 104 weeks) 1.63 mg/kg/day; (rat, strain Fischer 344, males, in drinking water, site: nasal cavity, lesion: malignant tumor, dosed 36 weeks, study length 104 weeks) 1.63 mg/kg/day. Besides, the TD50 (rat, strain Fischer 344, males, in drinking water, site: nasal cavity, lesion: papilloma, dosed 36 weeks, study length 104 weeks) was found to be 2.64 mg/kg/day and the TD50 (rat, strain Fischer 344, males, in drinking water, site: nasal cavity, lesion: several types, types named in the paper, dosed 36 weeks, study length 104 weeks) was 0.573 mg/kg/day.

On to `CCCN(N=O)C(N)=O`, for which the carcinogen call (rat, strain F344/DuCrj, females, in drinking water, site: thymus gland, lesion: lymphoma, dosed 70 weeks, study length 70 weeks) is “positive”; the carcinogen call (rat, strain F344/DuCrj, females, in drinking water, site: thymus gland, lesion: lymphoma, dosed 75 weeks, study length 75 weeks) is “positive”; the carcinogen call (rat, strain F344/DuCrj, males, in drinking water, site: thymus gland, lesion: lymphoma, dosed 70 weeks, study length 70 weeks) was “positive”; the carcinogen call (rat, strain F344/DuCrj, males, in drinking water, site: thymus gland, lesion: lymphoma, dosed 75 weeks, study length 75 weeks) was “positive”.

Take `CNC(=O)ON=C(SC)C(=O)N(C)C`: the carcinogen call by setting is: (mouse, strain Charles River CD1, females, in feed, site: any site (literature study), lesion: several types, types named in the paper, dosed 104 weeks, study length 104 weeks) “negative (inactive)”; (mouse, strain Charles River CD1, males, in feed, site: any site (literature study), lesion: several types, types named in the paper, dosed 104 weeks, study length 104 weeks) “negative (inactive)”; (rat, strain Charles River CD (Sprague-Dawley), females, in feed, site: liver, lesion: hepatocellular hyperplastic nodule, dosed 104 weeks, study length 104 weeks) “negative (inactive)”; (rat, strain Charles River CD (Sprague-Dawley), males, in feed, site: liver, lesion: one or several types, types not named, dosed 104 weeks, study length 104 weeks) “negative (inactive)”.

For `C/C(=C(\CCOC(=O)c1ccccc1)SC(=O)c1ccccc1)N(C=O)Cc1cnc(C)nc1N`, the TD50 was 14300 mg/kg/day (inactive) (rat, strain Sprague-Dawley, females, in feed, site: any site (literature study), lesion: malignant tumor, dosed 105 weeks, study length 105 weeks); 2340 mg/kg/day (inactive) (rat, strain Sprague-Dawley, males, in feed, site: any site (literature study), lesion: malignant tumor, dosed 105 weeks, study length 105 weeks); 6980 mg/kg/day (inactive) (rat, strain Sprague-Dawley, males, in feed, site: liver, lesion: liver-cell tumor, benign, dosed 105 weeks, study length 105 weeks); 6770 mg/kg/day (inactive) (rat, strain Sprague-Dawley, males, in feed, site: liver, lesion: liver-cell tumor, malignant, dosed 105 weeks, study length 105 weeks). Besides, the carcinogen call (rat, strain Sprague-Dawley, females, in feed, site: any site (literature study), lesion: several types, types named in the paper, dosed 105 weeks, study length 105 weeks) is “negative (inactive)”; the carcinogen call (rat, strain Sprague-Dawley, females, in feed, site: liver, lesion: hemangiosarcoma anaplastic, dosed 105 weeks, study length 105 weeks) is “negative (inactive)”; the carcinogen call (rat, strain Sprague-Dawley, males, in feed, site: any site (literature study), lesion: several types, types named in the paper, dosed 105 weeks, study length 105 weeks) was “negative (inactive)”.

`Cc1ccccc1N=O`: the TD50 is 59.2 mg/kg/day (rat, strain Fischer 344, males, in feed, site: liver, lesion: hepatoma, dosed 72 weeks, study length 93 weeks); 50.7 mg/kg/day (rat, strain Fischer 344, males, in feed, site: liver, lesion: several types, types named in the paper, dosed 72 weeks, study length 93 weeks); 195 mg/kg/day (rat, strain Fischer 344, males, in feed, site: peritoneal cavity, lesion: mesothelioma, dosed 72 weeks, study length 93 weeks); 303 mg/kg/day (rat, strain Fischer 344, males, in feed, site: peritoneal cavity, lesion: spindle-cell sarcoma, dosed 72 weeks, study length 93 weeks); 55.8 mg/kg/day (rat, strain Fischer 344, males, in feed, site: skin, lesion: fibroma, dosed 72 weeks, study length 93 weeks); 87 mg/kg/day (rat, strain Fischer 344, males, in feed, site: spleen, lesion: fibroma, dosed 72 weeks, study length 93 weeks). For the same molecule, the TD50 was 78.8 mg/kg/day (rat, strain Fischer 344, males, in feed, site: urinary bladder, lesion: papilloma, dosed 72 weeks, study length 93 weeks) and 71.5 mg/kg/day (rat, strain Fischer 344, males, in feed, site: urinary bladder, lesion: several types, types named in the paper, dosed 72 weeks, study length 93 weeks).

On to `ClCC=CCCl`, for which the TD50 is, setting by setting: (rat, strain Charles River CD (Sprague-Dawley), females, inhaled, site: nasal cavity, lesion: adenoma, dosed 51 weeks, study length 104 weeks) 13 mg/kg/day; (rat, strain Charles River CD (Sprague-Dawley), females, inhaled, site: nasal cavity, lesion: adenoma, dosed 104 weeks, study length 104 weeks) 0.695 mg/kg/day; (rat, strain Charles River CD (Sprague-Dawley), females, inhaled, site: nasal cavity, lesion: malignant tumor, dosed 51 weeks, study length 104 weeks) 0.242 mg/kg/day; (rat, strain Charles River CD (Sprague-Dawley), females, inhaled, site: nasal cavity, lesion: malignant tumor, dosed 104 weeks, study length 104 weeks) 8.32 mg/kg/day; (rat, strain Charles River CD (Sprague-Dawley), males, inhaled, site: nasal cavity, olfactory epithelium, lesion: adenocarcinoma, dosed 82 weeks, study length 104 weeks) 2 mg/kg/day; (rat, strain Charles River CD (Sprague-Dawley), males, inhaled, site: nasal cavity, olfactory epithelium, lesion: carcinoma, dosed 82 weeks, study length 104 weeks) 8.88 mg/kg/day. Moreover, the TD50 was 8.88 mg/kg/day (rat, strain Charles River CD (Sprague-Dawley), males, inhaled, site: nasal cavity, olfactory epithelium, lesion: carcinosarcoma, dosed 82 weeks, study length 104 weeks); 1.27 mg/kg/day (rat, strain Charles River CD (Sprague-Dawley), males, inhaled, site: nasal cavity, olfactory epithelium, lesion: malignant tumor, dosed 82 weeks, study length 104 weeks); 0.653 mg/kg/day (rat, strain Charles River CD (Sprague-Dawley), males, inhaled, site: nasal cavity, respiratory epithelium, lesion: adenoma, dosed 82 weeks, study length 104 weeks); 23.2 mg/kg/day (rat, strain Charles River CD (Sprague-Dawley), males, inhaled, site: nasal cavity, lesion: adenoma, dosed 51 weeks, study length 104 weeks); 0.313 mg/kg/day (rat, strain Charles River CD (Sprague-Dawley), males, inhaled, site: nasal cavity, lesion: adenoma, dosed 104 weeks, study length 104 weeks); 0.169 mg/kg/day (rat, strain Charles River CD (Sprague-Dawley), males, inhaled, site: nasal cavity, lesion: malignant tumor, dosed 51 weeks, study length 104 weeks). Also, the TD50 was 1.04 mg/kg/day (rat, strain Charles River CD (Sprague-Dawley), males, inhaled, site: nasal cavity, lesion: malignant tumor, dosed 104 weeks, study length 104 weeks) and 0.467 mg/kg/day (rat, strain Charles River CD (Sprague-Dawley), males, inhaled, site: nasal cavity, lesion: several types, types named in the paper, dosed 82 weeks, study length 104 weeks).
